Assay results: US20160039802A1, “3-PYRIMIDIN-4-YL-OXAZOLIDIN-2-ONES AS INHIBITORS OF MUTANT IDH” (NOVARTIS AG, priority 2013, published 2016)

These compounds were tested against T1, Mutant IDH1 R132H (Homo sapiens, UniProt O75874, R132H) (assay: Mutant IDH1 biochemical assay: LC-MS detection of 2-HG). Conditions: mIDH R132H […], 5 uM NADPH, 100 uM alpha-KG, 45 minutes incubation; range where run multiple times.
T1 construct: His6 with PreScission site (N, cleaved yes); made in house; host or cells: E. coli Rosetta 2(DE3)
From the text: Mutant IDH1 biochemical Sssay: LC-MS Detection of 2-HG.

T1 sequence (O75874 whole entry R132H): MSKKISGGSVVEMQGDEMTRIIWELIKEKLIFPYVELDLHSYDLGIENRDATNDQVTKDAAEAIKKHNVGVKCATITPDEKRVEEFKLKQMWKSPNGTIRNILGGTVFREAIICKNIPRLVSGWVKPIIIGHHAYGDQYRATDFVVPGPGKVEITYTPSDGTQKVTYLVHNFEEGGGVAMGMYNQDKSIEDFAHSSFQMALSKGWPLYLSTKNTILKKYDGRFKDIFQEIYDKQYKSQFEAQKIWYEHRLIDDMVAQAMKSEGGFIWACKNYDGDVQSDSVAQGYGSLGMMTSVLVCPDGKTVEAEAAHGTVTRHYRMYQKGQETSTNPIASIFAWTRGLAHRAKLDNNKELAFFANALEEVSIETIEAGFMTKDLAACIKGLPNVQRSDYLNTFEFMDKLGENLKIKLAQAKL

Row | Structure (SMILES) | IC50
1 | C[C@H](Nc1nccc(N2C(=O)OCC2(C)C2CC2)n1)c1ccc(CN2CCN(C)CC2)cc1 (single isomer, unassigned) [Example 47] | 703 nM
2 | C[C@H](Nc1nccc(N2C(=O)OCC2(C)C2CC2)n1)c1ccc(CN2CCN(C)C(C)(C)C2)cc1 (single isomer, unassigned) [Example 56] | 527 nM
3 | C[C@H](Nc1nccc(N2C(=O)OCC2(C)C2CC2)n1)c1ccc(CN2CCN(C)CC2)cc1 (single isomer, unassigned) [Example 48] | 2660 nM
4 | C[C@H](Nc1nccc(N2C(=O)OC[C@]2(C)C2CC2)n1)c1ccc(CN2CCC(C)(N)CC2)c(F)c1 [Example 43, (S)-3-(2-(((S)-1-(4-((4-amino-4-methylpiperidin-1-yl)methyl)-3-fluorophenyl)ethyl)amino)pyrimidin-4-yl)-4-cyclopropyl-4-methyloxazolidin-2-one] | 151 nM

The compounds below were run against T2, IDH1 (R132H) mutant (Homo sapiens, UniProt O75874, R132H) (assay: Fluorescence biochemical assay (NADPH oxidation)). Conditions: mIDH R132H 10 nM, 10 μM NADPH, 100 μM α-KG; range where run multiple times.
T2 construct: His6 with PreScission site (N, cleaved yes); made in house; host or cells: E. coli Rosetta 2(DE3)
Method: The IDH1 (R132H) mutant catalyzes the reduced form of NADP+ (NADPH) and α-ketoglutarate (α-KG) to form nicotinamide adenine dinucleotide phosphate (NADP+) and R(−)-2-hydroxyglutarate (2HG). […] Reactions were monitored using the Perkin-Elmer Envision, Model 2101. […] The final reaction mixture contained 2.5% DMSO and test compounds with concentrations ranging 0.0000008-25 μM. The IDH1 (R132H) enzyme was used at a final concentration of 10 nM. Curve fitting for dose response […] determinations was done in the Helios module of the software package DAVID. The 4-parameter logistic model was used: y=min+((max−min)/1+(x/IC50)^shape)

T2 sequence (O75874 whole entry R132H): as above

Row | Structure (SMILES) | IC50
5 | C[C@H](Nc1nccc(N2C(=O)OC[C@@H]2C2CC2)n1)c1cnc(-c2ccnc(C(F)(F)F)c2)s1 [Example 15, (S)-4-cyclopropyl-3-(2-(((S)-1-(2-(2-(trifluoromethyl)pyridin-4-yl)thiazol-5-yl)ethyl)amino)pyrimidin-4-yl)oxazolidin-2-one] | 108 nM
6 | C[C@H](Nc1nccc(N2C(=O)OC[C@@H]2C2CC2)n1)c1cnc(OCC(F)(F)F)c(Cl)c1 [Example 25, (S)-3-(2-((S)-1-(5-chloro-6-(2,2,2-trifluoroethoxy)pyridin-3-yl)ethylamino)pyrimidin-4-yl)-4-cyclopropyloxazolidin-2-one] | 372 nM
7 | C[C@H](Nc1ncc(F)c(N2C(=O)OC[C@@H]2C2CC2)n1)c1cnc(OCC(F)(F)F)c(Cl)c1 [Example 21, (S)-3-(2-((S)-1-(5-chloro-6-(2,2,2-trifluoroethoxy)pyridin-3-yl)ethylamino)-5-fluoropyrimidin-4-yl)-4-cyclopropyloxazolidin-2-one] | 1200 nM
8 | C[C@H](Nc1nccc(N2C(=O)OC[C@@H]2C2CC2)n1)c1ccc(CN2CCC(N(C)C)C(F)(F)C2)c(F)c1 (stereo partly drawn) [Example 69, (4S)-4-cyclopropyl-3-(2-(((1S)-1-(4-((4-(dimethylamino)-3,3-difluoropiperidin-1-yl)methyl)-3-fluorophenyl)ethyl)amino)pyrimidin-4-yl)oxazolidin-2-one] | 25 nM
9 | C[C@H](Nc1nc(Cl)cc(N2C(=O)OC[C@@H]2C2CC2)n1)c1ccccc1 [Example 2, (S)-3-(6-chloro-2-((S)-1-phenylethylamino)pyrimidin-4-yl)-4-cyclopropyloxazolidin-2-one] | 316 nM
10 | C[C@H](Nc1nc(Cl)cc(N2C(=O)OC[C@@H]2C2CC2)n1)c1nnc(-c2ccc(Cl)cc2)s1 [Example 4, (S)-3-(6-chloro-2-(((S)-1-(5-(4-chlorophenyl)-1,3,4-thiadiazol-2-yl)ethyl)amino)pyrimidin-4-yl)-4-cyclopropyloxazolidin-2-one] | 24.8 nM
11 | Cc1cc(N2C(=O)OC[C@@H]2C2CC2)nc(N[C@H](C)c2cn(-c3ccc(Cl)cc3)nn2)n1 [Example 12, (S)-3-(2-(((R)-1-(1-(4-chlorophenyl)-1H-1,2,3-triazol-4-yl)ethyl)amino)-6-methylpyrimidin-4-yl)-4-cyclopropyloxazolidin-2-one] | 323 nM
12 | C[C@H](Nc1ncc(F)c(N2C(=O)OC[C@@H]2C2CC2)n1)c1ccccc1 [Example 24, (S)-4-cyclopropyl-3-(5-fluoro-2-((S)-1-phenylethylamino)pyrimidin-4-yl)oxazolidin-2-one] | 1190 nM
13 | C[C@H](Nc1nccc(N2C(=O)OC[C@]2(C)C2CC2)n1)c1ccc(CN2CCC(N3CCOCC3)CC2)c(F)c1 [Example 67, (S)-4-cyclopropyl-3-(2-(((S)-1-(3-fluoro-4-((4-morpholinopiperidin-1-yl)methyl)phenyl)ethyl)amino)pyrimidin-4-yl)-4-methyloxazolidin-2-one] | 33 nM
